Literature values as cited in patent US11214591B2, “Enzyme compositions, steroid derivatives, enzyme inhibitors, and methods of making same for pharmaceutical applications” (BOARD OF REGENTS, THE UNIVERSITY OF TEXAS SYSTEM, priority 2018, dated 2022).

Experiments:
[1] = male rats
[2] = in vivo
[3] = in vivo; remark: listed apart in the source
[4] = mice feeding study; bile acid composition of micelles

C[C@]12CC[C@H](O)CC1=CC(=O)[C@@H]1[C@@H]2CC[C@]2(C)C(=O)CC[C@@H]12 [7-Keto DHEA, 7-keto dehydroepiandrosterone]
voluntary intake of ethanol [1]: decreased voluntary intake of ethanol

CC(=O)O[C@H]1CC[C@@]2(C)C(=CC(=O)[C@@H]3[C@@H]2CC[C@]2(C)C(=O)CC[C@@H]32)C1 [7-keto DHEA-3OAc, 7-keto dehydroepiandrosterone-3-acetate]
PTSD symptoms [2]: reduce post-traumatic stress disorder (PTSD) symptoms | resting metabolic rate associated with dieting [3]: reverse the resting metabolic rate associated with dieting

C[C@H](CCC(=O)O)[C@H]1CC[C@H]2[C@@H]3[C@H](O)C[C@@H]4C[C@H](O)CC[C@]4(C)[C@H]3CC[C@]12C [chenodeoxycholic acid]
cholesterol absorption [4]: 60%
